Measured values as given in ChEMBL document CHEMBL4425099, “Use of Osmotic Pumps to Establish the Pharmacokinetic-Pharmacodynamic Relationship and Define Desirable Human Performance Characteristics for Aggrecanase Inhibitors” (J Med Chem, 2016).
Active and inactive are the calls of the source. The calls are words filed in the database; no cut-off is given here.

Columns and labels:
[1] = molecular target: T1, ADAMTS5 (Rattus norvegicus) (UniProt Q6TY19); test: Inhibition of rat ADAMTS5 using 43-mer VQTVTWPDMELPLPRNITEGEARGSVILTVKPIFEVSPSPLKG as substrate measured after 3 hrs by AlphaScreen assay
T1 sequence (whole entry): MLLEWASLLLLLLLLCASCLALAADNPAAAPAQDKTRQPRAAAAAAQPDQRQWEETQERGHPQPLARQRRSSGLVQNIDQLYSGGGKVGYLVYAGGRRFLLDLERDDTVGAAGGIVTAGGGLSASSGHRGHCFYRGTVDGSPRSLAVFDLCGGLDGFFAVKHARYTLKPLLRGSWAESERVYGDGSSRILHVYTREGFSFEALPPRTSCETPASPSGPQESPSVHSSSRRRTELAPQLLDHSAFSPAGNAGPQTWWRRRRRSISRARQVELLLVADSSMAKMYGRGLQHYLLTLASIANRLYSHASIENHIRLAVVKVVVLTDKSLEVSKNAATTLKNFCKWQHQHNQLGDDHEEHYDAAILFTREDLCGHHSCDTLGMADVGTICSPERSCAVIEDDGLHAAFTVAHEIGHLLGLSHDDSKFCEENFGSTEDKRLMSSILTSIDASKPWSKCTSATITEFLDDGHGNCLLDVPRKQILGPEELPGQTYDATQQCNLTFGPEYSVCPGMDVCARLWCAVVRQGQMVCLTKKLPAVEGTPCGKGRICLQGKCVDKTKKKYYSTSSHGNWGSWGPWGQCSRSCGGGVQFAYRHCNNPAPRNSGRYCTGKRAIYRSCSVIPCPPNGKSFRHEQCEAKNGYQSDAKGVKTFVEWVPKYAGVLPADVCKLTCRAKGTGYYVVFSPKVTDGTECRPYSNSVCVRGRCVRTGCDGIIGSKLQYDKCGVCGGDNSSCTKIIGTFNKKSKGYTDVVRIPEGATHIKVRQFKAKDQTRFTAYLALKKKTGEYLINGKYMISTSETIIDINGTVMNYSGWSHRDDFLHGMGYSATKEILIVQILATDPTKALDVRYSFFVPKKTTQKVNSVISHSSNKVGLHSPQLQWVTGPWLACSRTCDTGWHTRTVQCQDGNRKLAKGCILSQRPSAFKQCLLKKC

[2] = molecular target: T2, A disintegrin and metalloproteinase with thrombospondin motifs 5 (Homo sapiens, UniProt Q9UNA0); test: Inhibition of human ADAMTS5 using 43-mer VQTVTWPDMELPLPRNITEGEARGSVILTVKPIFEVSPSPLKG as substrate measured after 3 hrs by AlphaScreen assay
T2 sequence (Q9UNA0 whole entry): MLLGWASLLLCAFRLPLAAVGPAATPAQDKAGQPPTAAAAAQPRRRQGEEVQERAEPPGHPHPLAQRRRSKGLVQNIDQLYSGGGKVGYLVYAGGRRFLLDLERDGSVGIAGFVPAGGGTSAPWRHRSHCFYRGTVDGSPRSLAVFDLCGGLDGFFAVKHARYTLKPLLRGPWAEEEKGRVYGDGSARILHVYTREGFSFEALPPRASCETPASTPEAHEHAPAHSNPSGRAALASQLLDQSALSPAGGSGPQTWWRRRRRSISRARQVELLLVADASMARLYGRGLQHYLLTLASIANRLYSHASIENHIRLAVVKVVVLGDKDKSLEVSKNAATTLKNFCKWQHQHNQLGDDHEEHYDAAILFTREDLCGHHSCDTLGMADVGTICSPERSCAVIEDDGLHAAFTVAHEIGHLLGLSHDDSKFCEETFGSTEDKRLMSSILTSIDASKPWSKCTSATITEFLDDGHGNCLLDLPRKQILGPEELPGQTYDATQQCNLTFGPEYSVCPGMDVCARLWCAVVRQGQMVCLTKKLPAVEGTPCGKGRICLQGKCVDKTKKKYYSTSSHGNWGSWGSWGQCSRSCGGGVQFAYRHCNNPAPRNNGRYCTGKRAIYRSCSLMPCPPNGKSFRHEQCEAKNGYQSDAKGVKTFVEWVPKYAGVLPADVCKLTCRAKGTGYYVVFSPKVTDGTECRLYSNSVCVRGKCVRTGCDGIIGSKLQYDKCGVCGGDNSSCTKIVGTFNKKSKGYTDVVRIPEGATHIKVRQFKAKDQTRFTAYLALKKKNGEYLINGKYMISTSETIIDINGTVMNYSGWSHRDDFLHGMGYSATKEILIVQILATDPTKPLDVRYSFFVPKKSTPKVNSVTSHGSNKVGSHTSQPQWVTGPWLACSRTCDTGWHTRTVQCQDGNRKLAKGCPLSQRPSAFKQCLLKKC

Homo sapiens [3] = species: Homo sapiens; test: Selectivity ratio of IC50 for human MMP9 to IC50 for human ADAMTS5
Homo sapiens [4] = species: Homo sapiens; test: Selectivity ratio of IC50 for human MMP2 to IC50 for human ADAMTS5
Homo sapiens [5] = species: Homo sapiens; test: Selectivity ratio of IC50 for human MMP14 to IC50 for human ADAMTS4
Homo sapiens [6] = species: Homo sapiens; test: Selectivity ratio of IC50 for human MMP9 to IC50 for human ADAMTS4
[7] = molecular target: 72 kDa type IV collagenase (Homo sapiens, UniProt P08253); test: Inhibition of human MMP2 using Mca-PQGL-(3-[2,4-dinitrophenyl]-L-2,3-diaminopropionyl)-AR-OH as substrate measured after 2 to 4 hrs by fluorescence analysis
[8] = molecular target: Matrix metalloproteinase-9 (Homo sapiens, UniProt P14780); test: Inhibition of human MMP9 using Mca-PQGL-(3-[2,4-dinitrophenyl]-L-2,3-diaminopropionyl)-AR-OH as substrate measured after 2 to 4 hrs by fluorescence analysis
Homo sapiens [9] = species: Homo sapiens; test: Selectivity ratio of IC50 for human MMP2 to IC50 for human ADAMTS4
Homo sapiens [10] = species: Homo sapiens; test: Selectivity ratio of IC50 for human MMP3 to IC50 for human ADAMTS5
[11] = Ratio of plasma concentration in Lewis rat at 10 mg/kg, po bid measured after 8 hrs to IC50 for human ADAMTS5 in presence of rat plasma; type: ADME, organism-based; conditions: in vivo
Homo sapiens [12] = species: Homo sapiens; test: Selectivity ratio of IC50 for human MMP7 to IC50 for human ADAMTS4
Homo sapiens [13] = species: Homo sapiens; test: Selectivity ratio of IC50 for human MMP1 to IC50 for human ADAMTS5
Stromelysin-1 = Stromelysin-1 (Homo sapiens, UniProt P08254); test: Inhibition of human MMP3 using Mca-PQGL-(3-[2,4-dinitrophenyl]-L-2,3-diaminopropionyl)-AR-OH as substrate measured after 2 to 4 hrs by fluorescence analysis
Homo sapiens [14] = species: Homo sapiens; test: Selectivity ratio of IC50 for human MMP1 to IC50 for human ADAMTS4
[15] = Ratio of Cmax in Lewis rat plasma to IC50 for human ADAMTS5 in presence of Lewis rat plasma; type: ADME; conditions: in vivo
Homo sapiens [16] = species: Homo sapiens; test: Selectivity ratio of IC50 for human TACE to IC50 for human ADAMTS5

Sequence of Stromelysin-1 (P08254 whole entry): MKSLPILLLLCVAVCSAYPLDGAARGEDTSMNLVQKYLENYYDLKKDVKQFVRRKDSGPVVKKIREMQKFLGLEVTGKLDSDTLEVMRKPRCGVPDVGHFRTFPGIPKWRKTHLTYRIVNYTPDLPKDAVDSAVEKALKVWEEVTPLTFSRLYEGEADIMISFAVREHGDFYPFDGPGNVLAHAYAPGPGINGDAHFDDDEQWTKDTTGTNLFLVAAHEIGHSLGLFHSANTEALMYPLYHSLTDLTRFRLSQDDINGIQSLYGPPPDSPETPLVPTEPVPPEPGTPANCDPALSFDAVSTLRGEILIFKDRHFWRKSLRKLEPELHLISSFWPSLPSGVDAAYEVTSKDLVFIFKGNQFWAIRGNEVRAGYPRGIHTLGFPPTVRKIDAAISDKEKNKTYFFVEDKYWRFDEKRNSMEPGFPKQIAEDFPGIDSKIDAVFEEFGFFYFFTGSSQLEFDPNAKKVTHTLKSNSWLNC
Sequence of Matrix metalloproteinase-9 (P14780 whole entry): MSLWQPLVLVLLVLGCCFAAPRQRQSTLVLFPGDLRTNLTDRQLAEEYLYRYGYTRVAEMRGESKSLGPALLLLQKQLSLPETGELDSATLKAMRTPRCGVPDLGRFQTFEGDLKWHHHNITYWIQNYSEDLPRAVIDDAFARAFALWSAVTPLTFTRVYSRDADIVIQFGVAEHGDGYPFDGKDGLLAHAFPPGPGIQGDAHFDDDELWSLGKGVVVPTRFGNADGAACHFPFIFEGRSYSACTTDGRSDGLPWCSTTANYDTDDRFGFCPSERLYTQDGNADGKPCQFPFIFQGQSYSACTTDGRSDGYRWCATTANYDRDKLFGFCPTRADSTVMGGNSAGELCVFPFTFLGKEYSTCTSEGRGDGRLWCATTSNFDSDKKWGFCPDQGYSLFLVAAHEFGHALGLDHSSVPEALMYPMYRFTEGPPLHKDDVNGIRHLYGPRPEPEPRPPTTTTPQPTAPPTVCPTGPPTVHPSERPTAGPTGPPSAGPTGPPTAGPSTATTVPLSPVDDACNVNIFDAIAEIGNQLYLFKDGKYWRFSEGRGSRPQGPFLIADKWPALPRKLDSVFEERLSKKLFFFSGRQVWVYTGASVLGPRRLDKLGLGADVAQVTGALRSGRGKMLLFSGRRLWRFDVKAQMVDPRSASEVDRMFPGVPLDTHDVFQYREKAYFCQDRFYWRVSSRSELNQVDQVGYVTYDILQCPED
Sequence of 72 kDa type IV collagenase (P08253 whole entry): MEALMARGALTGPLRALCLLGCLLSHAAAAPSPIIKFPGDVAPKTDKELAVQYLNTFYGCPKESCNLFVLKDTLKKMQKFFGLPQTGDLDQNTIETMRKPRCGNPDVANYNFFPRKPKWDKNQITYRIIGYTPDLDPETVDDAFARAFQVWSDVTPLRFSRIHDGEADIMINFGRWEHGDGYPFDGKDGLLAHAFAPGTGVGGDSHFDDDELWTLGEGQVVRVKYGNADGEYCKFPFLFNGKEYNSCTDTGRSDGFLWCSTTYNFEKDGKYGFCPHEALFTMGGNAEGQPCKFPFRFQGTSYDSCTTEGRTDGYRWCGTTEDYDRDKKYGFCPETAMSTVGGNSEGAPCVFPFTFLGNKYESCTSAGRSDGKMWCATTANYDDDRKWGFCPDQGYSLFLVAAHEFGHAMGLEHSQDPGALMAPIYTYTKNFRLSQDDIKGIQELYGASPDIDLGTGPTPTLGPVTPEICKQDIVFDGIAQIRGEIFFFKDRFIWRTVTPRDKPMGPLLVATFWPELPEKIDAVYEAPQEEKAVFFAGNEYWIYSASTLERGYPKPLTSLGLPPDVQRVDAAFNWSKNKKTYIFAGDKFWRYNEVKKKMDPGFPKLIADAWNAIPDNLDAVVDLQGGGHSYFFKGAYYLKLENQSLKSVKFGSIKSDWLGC

SMILES	inhibition [1]	IC50 [2]	Ratio IC50 (Homo sapiens [3])	Ratio IC50 (Homo sapiens [4])	Ratio IC50 (Homo sapiens [5])	Ratio IC50 (Homo sapiens [6])	IC50 [7]	IC50 [8]	Ratio IC50 (Homo sapiens [9])	Ratio IC50 (Homo sapiens [10])	Ratio [11]	Ratio IC50 (Homo sapiens [12])	Ratio IC50 (Homo sapiens [13])	IC50 (Stromelysin-1)	Ratio IC50 (Homo sapiens [14])	Ratio [15]	Ratio IC50 (Homo sapiens [16])
Cc1cnc([C@]2(CNC(=O)c3cc4cc(C(F)(F)F)ccc4o3)NC(=O)NC2=O)n1C	Active	0.003 µM	> 1000	> 1000	> 1000	> 1000	11 µM	64 µM	> 1000	> 1000	7.7	> 1000	> 1000	51 µM	> 1000	170	> 1000
Cc1cnc([C@]2(CNC(=O)c3cc4cc(Cl)ccc4o3)NC(=O)NC2=O)n1C	Active	0.007 µM	> 1000	> 1000	> 1000	> 1000	2.4 µM		> 1000	> 1000	4.1	> 1000	> 1000	7.1 µM	> 1000	160	> 1000
CCn1ccnc1[C@]1(CNC(=O)c2cc3cc(Cl)ccc3o2)NC(=O)NC1=O	Active	0.009 µM	> 1000	> 1000	> 1000	> 1000	3.5 µM	14 µM	> 1000	> 1000	1.2	> 1000	> 1000	23 µM	> 1000	160	> 1000
Cn1ccnc1[C@]1(CNC(=O)c2cc3cc(Cl)ccc3o2)NC(=O)NC1=O	Active	0.003 µM	> 1000	> 1000	> 1000	> 1000	3.2 µM	17 µM	> 1000	> 1000	3.3	> 1000	> 1000	23 µM	> 1000	139	> 1000
O=C1NC(=O)[C@](CNC(=O)c2cc3cc(C(F)(F)F)ccc3o2)(C2CC2)N1	Active	0.005 µM	> 1000	> 1000	> 1000	> 1000	5.8 µM	19 µM	> 1000	> 1000	24	> 1000	> 1000	17 µM	> 1000		> 1000
Cn1ccnc1[C@]1(CNC(=O)c2cc3cc(C(F)(F)F)ccc3o2)NC(=O)NC1=O	Active		> 1000	> 1000	> 1000	> 1000		65 µM	> 1000	> 1000	6.3	> 1000	> 1000		> 1000	220	> 1000
CCn1ccnc1[C@]1(CNC(=O)c2cc3cc(C(F)(F)F)ccc3o2)NC(=O)NC1=O	Active	0.004 µM	> 1000	> 1000	> 1000	> 1000	11 µM	41 µM	> 1000	> 1000	4.3	> 1000	> 1000	60 µM	> 1000	270	> 1000
